Experimental findings from PMC5884652, “New antimicrobial peptide kills drug-resistant pathogens without detectable resistance” (Oncotarget, 2018) are described below.

Data set [1] has as its system S. aureus CCARM 0027-infected hairless mice. The data set is described as follows: Dermal infection and inflammation model. The class given is in vivo, mouse. The method, then:
Male hairless mouse (aged 6 weeks, 5 mouse/group, total 7 groups) were injected intraepidermal with S. aureus CCARM 0027 (1 × 10^8 cfu/ml). The CSP-4 peptide (200, 100, 50, 25 μg/ml) was injected intraeptidermal into mice at 1 h after the S. aureus CCARM 0027 injection, samples of inflamed skin was collected after 7 days and 4-μm-thick sections were prepared as described in the preceding section. Each sample was then incubated for 30 min at 24° C with 5% bovine serum albumin, mouse anti-Toll-like receptor-2 (TLR-2) (AbFrontier, AB24192), mouse monoclonal anti-TNF-α (AbFrontier, AB1793), and mouse polyclonal anti-IL-1β (AbFrontier, AB1413). The samples were then washed with Tris-buffered saline containing Tween 20 buffer and incubated with HRP LF-SA5001-conjugated goat anti-mouse IgG, and stained with hematoxylin and eosin. The stained sections were examined under a fluorescence microscope.
Western blot analysis was performed as using changes in protein expression. Briefly, proteins extracted from the hairless mouse skin were separated for 3 h using 15% SDS-polyacrylamide gel electrophoresis and transferred to polyvinylidene fluoride membranes (Bio-Rad, Hercules, CA, USA) for 1 h at 90 V. The membranes were then incubated overnight at 4° C in 5% skim milk containing anti-GAPDH (LF-PA0018; Santa Cruz Biotechnology, Santa Cruz, CA, USA), mouse anti-TLR2 (AbFrontier, AB24192), mouse anti-NF-κB, (Santa Cruz Biotechnology, SC-71675), mouse anti-TNF-α (AbFrontier, AB1793), mouse anti-IL-1β (AbFrontier, AB1413), and mouse anti-cathelicidin (AbFrontier, AB93357). The membranes were then washed in Tris-buffered saline containing Tween 20 and incubated with the horseradish peroxidase (HRP)-conjugated secondary antibodies LF-SA5002 goat anti-rabbit IgG and LF-SA5001 goat anti-mouse IgG. The blots were developed using a Western Blot Detection kit (AbFrontier, LF-QC0103).
For scanning electron microscopy (SEM), S. aureus cells were cultured in LB medium (pH 5.5 or pH 7.4), washed 3 times with 10 mM sodium phosphate buffer, and stirred at 4000 rpm. CSP-4 was added to the cells and incubated at 25° C. After incubation, the cells were fixed in 4% glutaraldehyde for 20 min and dehydrated in 50% and then 100% ethanol (10 min each step) at 37° C. In addition, 7 days after inducing inflammation in hairless mouse skin tissue by infection with drug-resistant S. aureus CCARM 0027 strain or E. coli bacteria, samples of skin tissue were isolated, washed in PBS, fixed in 4% paraformaldehyde overnight at 4° C, and dehydrated in 50% and then 100% ethanol (2 h each step) at 37° C. Samples were then gold-coated and visualized by SEM (JSM-7100F; JEOL, Tokyo, Japan).

Data set [2] concerns TNF-α and IL-1β in RAW 264.7 macrophages. As to the kind of experiment: Pro-inflammatory cytokines in macrophages. Type of data set: cell-based, mouse. The method, then: To examine cytokine expression elicited by S. aureus CCARM 0027, RAW 264.7 mouse macrophages were cultured in DMEM supplemented with antibiotics ([…] penicillin and 100 μg/mL streptomycin) and 10% fetal calf serum in 12-well plates at 37° C in a humidified chamber with an atmosphere containing 5% CO2. Expression of the pro-inflammatory cytokines TNFα and IL-β was evaluated after the addition of S. aureus CCARM 0027 (1 × 10^6 cfu/mL) for 30 min at […]. After treatment, the RAW 264.7 cells (1 × 10^6 cells/mL) were incubated for an additional 24 h with or without CSP-4 (25, 50, 100, and 200 µg/mL). The cells were then collected and the protein was extracted using PRO-PREP™ protein extraction solution (iNtRON Biotechnology, Gyeonggi-do, Korea).
RAW 264.7 cells (1 × 10^6 cells/mL) were seeded into a 12-well plate and incubated for 24 h as described above. […] The levels of pro-inflammatory cytokines in the supernatants were determined after 12 h using mouse anti-TNF-α and anti-IL-1β antibodies based on absorbance at 450 nm using a microplate reader (VERSA Max microplate reader, Molecular Devices). Cytokine concentrations were also determined using TNF-α and IL-1β enzyme-linked immunosorbent assay kits (Koma Biotech, Seoul, Korea). […]

Data set [3] concerns S. aureus LTA. The data set is described as follows: Peptide-LTA binding affinity assay (dansyl polymyxin B). To be noted: LTA 9 µg, 2.5 μM dansyl polymyxin B, 5 mM HEPES buffer pH 7.4, peptide 0.4 to 4 μM. The method, then:
Lipoteichoic acid (LTA) and lipopolysaccharide (LPS) binding affinity assays were performed using a Perkin-Elmer LS55 fluorometer (Waltham, MA, USA). S. aureus LTA and E. coli LPS (9 µg) were incubated with 2.5 μM dansyl-polymyxin B in 5 mM HEPES buffer for 5–10 min at pH 7.4. The CSP-4 peptide was added in 0.4 μM increments from 0.4 to 4 μM. The increase in fluorescence intensity was assessed using a spectrofluorometer at an excitation wavelength of 340 nm and an emission wavelength of 482 nm (Perkin-Elmer LS55).

Ends that are not written are not given here.

On to FLRFIGSVKHGKGHLVHHIGVAL-NH2 [CSP-4], for which the “Epidermal thickness and immune cell infiltration” value in data set [1] (200 µg/mL and 100 µg/mL, skin collected after 7 days, hematoxylin and eosin) is reported as “dose-dependent decrease”. Also, the “TLR-2, NF-κB, TNF-α, IL-1β, and cathelicidin levels in skin” value in data set [1] (200 μg/mL or 100 μg/mL, Western blot) was “concentration-dependent decreases”. The “Dermal collagen and elastin, uninfected mice treated with peptide alone” value in data set [1] (CSP-4 alone (200 µg/mL), SEM) is recorded as “not damaged”. Moreover, the “Collagen and elastin damage in infected skin” value in data set [1] (SEM, 7 days after infection) is recorded as “dose-dependently reduced”. Moreover, the “TNF-α and IL-1β levels” value was “significantly decreased” in data set [2] (RAW 264.7 cells exposed to S. aureus CCARM 0027 (1 × 10^6 cfu/mL), CSP-4 25, 50, 100, and 200 μg/mL, ELISA); “reduced TNF-α and IL-1β levels” in data set [2] (RAW 264.7 cells treated with 1 μg/mL S. aureus LTA, CSP-4 100 µg/mL, immunocytochemistry). Also, the “Binding to LTA (fluorescence of dansyl polymyxin B)” value in data set [3] is “dose-dependent increase in fluorescence intensity”.
